The test system of one assay is C. albicans CCARM 14001. Briefly: MIC in antibiotic-tolerant fungi. The note with it: Candida albicans, CCARM14001; RMPI 1640. The format is cell-based. On the procedure: (§1) To measure the fungicidal activity of the peptide prepared in Example 1, the present inventors measured MIC, the minimal concentration that can keep the strain without being divided. For the measurement of fungicidal activity, pathogenic fungi selected from the group consisting of Candida albicans, C. catenulate, C. intermidia, C. rugosa, C. glabrata and C. melibiosica were used. After cultured in optimal media, the strains were diluted at the density of 2×10^5 cells/ml, which were then inoculated on microtitrate plates. The peptide synthesized in Example 1 and the positive control peptide (Melittin) were 2-fold diluted in solution 1 (10 mM sodium phosphate buffer, pH 7.2) and solution 2 (phosphate buffered saline) from 128 μM/well, which were added in the plate, followed by culture at 37° C. for 18˜24 hours. OD620 was measured with a microtitrate plate reader to determine MIC of each strain.
(§2) To measure the fungicidal activity of the peptide of the present invention in antibiotic-tolerant fungi, MIC of the peptide was measured by the same manner as described in Example <2-2> using RMPI 1640 and antibiotic-tolerant Candida albicans (C. albicans CCARM 14001, 14007, 14020).

Another assay deals with C. albicans CCARM 14020. Briefly: MIC in antibiotic-tolerant fungi. The format is cell-based. The settings on record: Candida albicans, CCARM14020. On the procedure:
as §1, §2

Another assay has as its system C. albicans CCARM 14007. Put plainly: MIC in antibiotic-tolerant fungi. The format is cell-based. The note with it: Candida albicans, CCARM14007; RMPI 1640. On the procedure:
as §1, §2

Assay [1] deals with S. typhimurium CCARM 8007. The format is cell-based, Salmonella typhimurium. The source says:
(§3) To measure the antibacterial activity of the peptide prepared in Example 1, the present inventors measured MIC, the minimal concentration that can keep the strain without being divided. For the measurement of antibacterial activity, Gram-positive bacteria selected from the group consisting of Bacillus subtilis, Staphylococcus aureus and Listeria monocytogenes, Gram-negative bacteria selected from the group consisting of Escherichia coli, Psedomonas aeruginosa and Salmonella typhimurium, and antibiotic-tolerant strains selected from the group consisting of E. coli (E. coli CCARM 1229, 1238), Salmonella (S. typhimurium CCARM 8007, 8009, 8013) and Staphylococcus (S. aureus CCARM 3089, 3090, 3108, 3114, 3126) were used. After cultured in optimal media, the strains were diluted at the density of 2×10^5 cells/ml, which were then inoculated on microtitrate plates. The peptide synthesized in Example 1 and the positive control peptide (Melittin) were 2-fold diluted in sodium phosphate buffer and phosphate buffered saline (PBS) from 200 μM/well, which were added in the plate, followed by culture at 37° C. for 18˜24 hours. OD620 was measured with a microtitrate plate reader to determine MIC of each strain. The results are presented in Table 1 (the number in bracket indicates the one obtained from PBS).

Assay [2] has as its system S. typhimurium CCARM 8013. The format is cell-based, Salmonella typhimurium.
Excerpt: as §3

Assay [3] relates to S. typhimurium CCARM 8009. The format is cell-based, Salmonella typhimurium.
Excerpt: as §3

The subject of the next assay is E. coli CCARM 1238. The format is cell-based, Escherichia coli.
Excerpt: as §3

The subject of the next assay is S. aureus CCARM 3126. Briefly: MIC in antibiotic-tolerant strains. The format is cell-based, Staphylococcus aureus.
Excerpt: as §3

The subject of a further assay is S. aureus CCARM 3114. The format is cell-based, Staphylococcus aureus.
Excerpt: as §3

Another assay deals with S. aureus CCARM 3089. The format is cell-based, Staphylococcus aureus.
Excerpt: as §3

The subject of the next assay is S. aureus CCARM 3108. The format is cell-based, Staphylococcus aureus.
Excerpt: as §3

Another assay concerns S. aureus CCARM 3090. The format is cell-based, Staphylococcus aureus.
Excerpt: as §3

A further assay has as its system L. monocytogenes. The format is cell-based, Listeria monocytogenes.
Excerpt: as §3

≈ marks a conversion by molar mass, not a printed value. Like-named read-outs stand apart in the source and are kept apart here. Where no end group is shown, it is not given here.

The term MIC denotes the smallest concentration in the dilution series that meets the test's criterion for growth inhibition. Read a low MIC as inhibition by little substance. `OC(Cn1cncn1)(Cn1cncn1)c1ccc(F)cc1F` [Fluconazole]: the MIC in the assay on C. albicans CCARM 14001, in the assay on C. albicans CCARM 14020 and against C. albicans CCARM 14007 was more than 128 µM throughout.
As to `CC[C@H](C)[C@H](NC(=O)CN)C(=O)NCC(=O)N[C@@H](C)C(=O)N[C@H](C(=O)N[C@@H](CC(C)C)C(=O)N[C@@H](CCCCN)C(=O)N[C@H](C(=O)N[C@@H](CC(C)C)C(=O)N[C@H](C(=O)N[C@H](C(=O)NCC(=O)N[C@@H](CC(C)C)C(=O)N1CCC[C@H]1C(=O)N[C@@H](C)C(=O)N[C@@H](CC(C)C)C(=O)N[C@H](C(=O)N[C@@H](CO)C(=O)N[C@@H](Cc1c[nH]c2ccccc12)C(=O)N[C@H](C(=O)N[C@@H](CCCCN)C(=O)N[C@@H](CCCNC(=N)N)C(=O)N[C@@H](CCCCN)C(=O)N[C@@H](CCCNC(=N)N)C(=O)N[C@@H](CCC(N)=O)C(=O)N[C@@H](CCC(N)=O)C(N)=O)[C@@H](C)CC)[C@@H](C)CC)[C@@H](C)O)[C@@H](C)O)C(C)C)C(C)C` [Melittin], the minimum inhibitory concentration (MIC) entry in assay [1] (PBS (number in bracket)) is “(12.5) μM”; in [1] (sodium phosphate buffer), 6.25 µM (≈ 17.8 µg/mL); in assay [2] (PBS (number in bracket)) it was “(6.25) μM”; in [2] (sodium phosphate buffer), 3.12 µM (≈ 8.88 µg/mL); in assay [3] (PBS (number in bracket)) it was “(12.5) μM”; in assay [3] (sodium phosphate buffer) it was 6.25 µM (≈ 17.8 µg/mL). Besides, the MIC result is “(1.56) μM” in the assay on E. coli CCARM 1238 (PBS (number in bracket)); 1.56 µM (≈ 4.44 µg/mL) against E. coli CCARM 1238 (sodium phosphate buffer); “(1.56) μM” in the assay with S. aureus CCARM 3126 (PBS (number in bracket)); 1.56 µM (≈ 4.44 µg/mL) in the assay with S. aureus CCARM 3126 (sodium phosphate buffer); “(3.12) μM” in the assay on S. aureus CCARM 3114 (PBS (number in bracket)); 3.12 µM (≈ 8.88 µg/mL) with S. aureus CCARM 3114 (sodium phosphate buffer). Besides, the MIC entry in the assay with S. aureus CCARM 3089 (PBS (number in bracket)) is “(1.56) μM”; in the assay on S. aureus CCARM 3089 (sodium phosphate buffer), 1.56 µM (≈ 4.44 µg/mL); against S. aureus CCARM 3108 (PBS (number in bracket)), “(1.56) μM”; against S. aureus CCARM 3108 (sodium phosphate buffer), 1.56 µM (≈ 4.44 µg/mL); against S. aureus CCARM 3090 (PBS (number in bracket)) it was “(3.12) μM”; in the assay on S. aureus CCARM 3090 (sodium phosphate buffer), 3.12 µM (≈ 8.88 µg/mL). The MIC entry in the assay with L. monocytogenes (PBS (number in bracket)) is “(1.56) μM”; in the assay on L. monocytogenes (sodium phosphate buffer), 1.56 µM (≈ 4.44 µg/mL).
Regarding KWKWKWKW-NH2 [SEQ. ID. NO: 3], the MIC with S. aureus CCARM 3126 (sodium phosphate buffer) was found to be 12.5 µM.

The values above are taken from US10301354B2, “Antibacterial and fungicidal peptide in which lysine and tryptophan residues are repeated, and use thereof” (priority 2011, dated 2019).
